Measured values reported in publication PMC3081989 (Biochemistry, 2010).
Blank lines part the entries; values can stand above or below the compound they belong to. Where a SMILES comes first, the peptide text is derived from it.

Key:
[1] = test system: humans; conditions: cited from earlier work
[2] = test system: hRXRα-LBD homodimer; assay: hydrogen deuterium exchange mass spectrometry; format: binding, human
[3] = molecular target: T1, hRXRα-LBD:9cRA homodimers (Homo sapiens, UniProt P19793); assay: isothermal titration calorimetry; conditions: 37 °C, buffer C pH 8.0, single-site binding model
T1 sequence (P19793 223-462): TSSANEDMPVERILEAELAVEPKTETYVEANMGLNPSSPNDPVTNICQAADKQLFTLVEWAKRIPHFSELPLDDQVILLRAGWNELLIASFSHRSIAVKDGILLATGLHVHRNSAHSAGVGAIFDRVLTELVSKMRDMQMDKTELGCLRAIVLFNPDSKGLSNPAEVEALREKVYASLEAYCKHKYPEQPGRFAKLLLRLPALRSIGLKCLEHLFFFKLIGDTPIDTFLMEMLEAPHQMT

[4] = molecular target: GRIP-1 (NCOA2/TIF2) NR-box II coactivator peptide, 13-mer (UniProt Q15596); assay: ITC; conditions: pH 8.0, 25 °C, 50 mM NaCl, buffer C: 10 mM Tris

- change in deuterium incorporation of peptides around the ligand binding pocket ([2]; relative to apo-hRXRα-LBD, upon 9cRA binding): 10–37%
Compound: CC1=C(/C=C/C(C)=C\C=C\C(C)=C\C(=O)O)C(C)(C)CCC1 [9cRA, 9-cis-retinoic acid]
- toxicity ([1]; oral administration to humans): displays significant toxicity with oral administration to humans
- reduction in deuterium incorporation, peptide L419-F438 (H11) ([2]; following 15 s of deuterium incorporation, 9cRA alone): > 20%
- rate of deuterium incorporation, H12 region ([2]; hRXRα-LBD:9cRA versus apo-hRXRα-LBD, GRIP-1 added to hRXRα-LBD:9cRA): unaltered rates of incorporation
- reduction in deuterium incorporation, peptide L301-L308 (H4) ([2]; text: upon the addition of GRIP-1 versus in the presence of 9cRA alone): 12%

- Kd [3]: 1000 ± 50 nM
Compound: CC[C@H](C)[C@H](NC(=O)[C@H](CCCCN)NC(=O)[C@H](Cc1c[nH]cn1)NC(=O)[C@@H](N)CCCCN)C(=O)N[C@@H](CC(C)C)C(=O)N[C@@H](Cc1c[nH]cn1)C(=O)N[C@@H](CCCNC(=N)N)C(=O)N[C@@H](CC(C)C)C(=O)N[C@@H](CC(C)C)C(=O)N[C@@H](CCC(N)=O)C(=O)N[C@@H](CC(=O)O)C(=O)N[C@@H](CO)C(=O)N[C@@H](CO)C(=O)O [GRIP-1] (H-KHKILHRLLQDSS-OH)

Compound: C=C(c1ccc(C(=O)O)cc1)c1cc2c(cc1C)C(C)(C)CCC2(C)C [Targretin]
- dose limiting toxicities compared with 9cRA ([1]; oral treatment of cutaneous T-cell lymphoma): significantly fewer dose limiting toxicities than 9cRA

- ΔH [4]: -9.15 kcal/mol
Compound: Retinoid X receptor alpha ligand-binding domain, homodimer loaded with 9-cis-retinoic acid (hRXRalpha-LBD:9cRA)
